Measurements: patent US20160201132A1, “GENE EXPRESSION BIOMARKERS OF LAQUINIMOD RESPONSIVENESS” (Teva Pharmaceutical Industries Ltd., priority 2013, published 2016)

Tested on: PBMC of RRMS patients
Assay: Gene expression microarray analysis (HG-U133A-2) of PBMC from RRMS patients treated with LAQ, ancillary study to ALLEGRO
Type: in vivo, human
Conditions: for Fold-Change (1.0 vs. 0.0): one month of treatment
Description: The goal of this ancillary study was to characterize gene expression changes and corresponding biological mechanisms induced in PBMC of RRMS patients by LAQ treatment. According to ALLEGRO clinical trial inclusion criteria, 25 patients were randomly assigned to receive LAQ (n=13, age 38.8±2.3 years, female/male ratio: 8/5) or placebo (n=12, age 37.2±3.4 years, female/male ratio: 8/4).
Peripheral blood samples were obtained from RRMS patients at baseline before start of LAQ treatment or placebo, after 0, 1, 6 and 24 month of treatment (visit 0, 1, 6 and 7 according to ALLEGRO clinical trial protocol correspondently) for gene microarray analysis.
Briefly, 1) Peripheral blood mononuclear cells (PBMC) were obtained from RRMS patients that participated in ALLEGRO and were treated daily with 0.6 mg LAQ or placebo. PBMC were subjected for gene expression analysis (HU-133A-2-Affymatrix arrays) at baseline and at 1 and 6 months of LAQ treatment; 2) Data was analyzed by Partek Genomics Solution software. Most informative genes (MIGs) were defined as those that differentiated between groups with p<0.01. Gene functional annotation, enrichment and pathway analysis were performed by Ingenuity software. For each time point, genes that changed in placebo group were excluded from further analysis; and 3) Verification of LAQ related mechanism was performed by Western blot.
PBMC were extracted from 15 ml peripheral blood, separated by Ficoll-Hypaque gradient. Total RNA was extracted using both Trizol (Invitrogen, USA) and Phase-Lock-Gel columns (Eppendorf, Germany) including a DNase digestion step. RNA integrity was assessed by RNA Experion automated electrophoresis system (Bio-Rad Laboratories, Hercules, Calif.).
Probe synthesis using 3 μg total RNA, hybridization, detection, and scanning was performed according to the standard Affymetrix, Inc. USA protocols; cDNA was synthesized using the Two-Cycle cDNA Synthesis Kit (Affymetrix, Inc., USA), and in-vitro transcription performed with the GeneChip IVT Labeling Kit (Affymetrix, Inc., USA). The biotin-labeled IVT-RNA was hybridized to HG-U133A-2 arrays containing 18,400 gene transcripts, each corresponding to 14,500 well-annotated human genes, washed in a GeneChip Fluidics Station 450 (Hewlett Packard, USA, GeneArray-™ scanner G2500A) and scanned according to the manufacturer's protocol (Affymetrix, Inc., USA).
Data analysis was performed on Partek Genomics Solution software (www.partek.com; Partek Incorporated, St. Louis, Mo.). Expression values were computed from raw CEL files by applying the Robust Multi-Chip Average (RMA) background correction algorithm. RMA correction included: 1) values background correction; 2) quintile normalization; 3) log 2 transformation; and 4) median polish summarization. The ANOVA, Repeated Measures and correlation analysis implicated in Partek software ware applied to evaluate LAQ effects. Most informative genes MIGs were defined as those that differentiated between experimental groups with p<0.01. All p-values were calculated for False Discovery Rate (FDR) multiple test correction at p=0.05.
Additionally, significance of individual genes was tested by parametric T-test and non parametric Mann-Whitney test using Bootstrapping approach based on repeated permutations of the data with 5% FDR for multiple testing.
Gene functional annotation, enrichment, and pathway analyses to identify the leading biological pathways that operated under LAQ treatment were performed by Ingenuity Pathways Analysis software (www.ingenuity.com).
ANOVA analysis was used to compare PBMC gene expression after 1, 6 or 24 month of LAQ treatment with baseline gene expression.
For each time point inventors performed analysis source of variation in dataset. (FIG. 1). Age, gender and batch effects were considered as confounders regarding LAQ or Placebo related changes. For each time point genes associated with Placebo effect were evaluated and excluded from further analysis. […]

[1] = 1 month of LAQ 0.6 mg/day vs baseline
[2] = 6 months of LAQ 0.6 mg/day vs baseline
[3] = 1564 FDR genes, combined 6 and 24 months

`CCN(C(=O)c1c(O)c2c(Cl)cccc2n(C)c1=O)c1ccccc1` [LAQ, 5-chloro-N-ethyl-4-hydroxy-1-methyl-2-oxo-N-phenyl-1,2-dihydroquinoline-3-carboxamide] was tested, and the “# of genes p < 0.01 (LAQ related MIGs, ANOVA)” value [1] was 354, the “Down regulated genes (LAQ related MIGs)” value [1] was 348 and the “Up-regulated genes (LAQ related MIGs)” value [1] was 6. The “# of genes p < 0.01 (LAQ related MIGs, ANOVA)” value [2] was 1562, the “Down regulated genes (LAQ related MIGs)” value [2] was 1552 and the “Up-regulated genes (LAQ related MIGs)” value [2] was 10. The “p, suppression of genes related to the TGFB pathway” value (6 months or longer treatment) was 1.9*10^−2, the “genes (n), suppression of cell migration function” value [3] was 233 and the “genes (n), suppression of chemotaxis” value [3] was 78. For the same compound, the “p, suppression of cell migration function” value [3] was 4.5*10^−14, the “p, suppression of chemotaxis” value [3] was 4.3*10^−5 and the “Fold-Change (1.0 vs. 0.0)” value (202280_at (gene symbol not given)) was −1.157. The “Fold-Change (1.0 vs. 0.0)” value (ABLIM3 205730_s_at) was −1.542, the “Fold-Change (1.0 vs. 0.0)” value (ALDOB 204704_s_at) was −1.119 and the “Fold-Change (1.0 vs. 0.0)” value (APBA2 209871_s_at) was −1.163. For the same compound, the “Fold-Change (1.0 vs. 0.0)” value (ARHGEF10 215139_at) was −1.176, the “Fold-Change (1.0 vs. 0.0)” value (ARMCX6 /// LOC653354 214749_s_at) was −1.178 and the “Fold-Change (1.0 vs. 0.0)” value (ASAP2 206414_s_at) was −1.773. The “Fold-Change (1.0 vs. 0.0)” value (C1orf116 219476_at) was −1.222, the “Fold-Change (1.0 vs. 0.0)” value (CA5A 207421_at) was −1.243 and the “Fold-Change (1.0 vs. 0.0)” value (CALD1 201617_x_at) was −1.326. For the same compound, the “Fold-Change (1.0 vs. 0.0)” value (CALD1 212077_at) was −1.896, the “Fold-Change (1.0 vs. 0.0)” value (CAPRIN1 200722_s_at) was −1.157 and the “Fold-Change (1.0 vs. 0.0)” value (CCDC93 209689_at) was −1.133. For the same compound, the “Fold-Change (1.0 vs. 0.0)” value (CD84 211190_x_at) was −1.166, the “Fold-Change (1.0 vs. 0.0)” value (CDC14B 208022_s_at) was −1.4133 and the “Fold-Change (1.0 vs. 0.0)” value (CLDN5 204482_at) was −1.364. The “Fold-Change (1.0 vs. 0.0)” value (CTDSPL 201905_s_at) was −1.468, the “Fold-Change (1.0 vs. 0.0)” value (DLG4 210684_s_at) was −1.187 and the “Fold-Change (1.0 vs. 0.0)” value (DNM3 209839_at) was −1.8. For the same compound, the “Fold-Change (1.0 vs. 0.0)” value (FABP7 205030_at) was −1.176, the “Fold-Change (1.0 vs. 0.0)” value (FAM12B 220759_at) was −1.1468 and the “Fold-Change (1.0 vs. 0.0)” value (FBXO7 201178_at) was −1.135. For the same compound, the “Fold-Change (1.0 vs. 0.0)” value (FBXW7 218751_s_at) was −1.112, the “Fold-Change (1.0 vs. 0.0)” value (FSTL1 208782_at) was −1.694 and the “Fold-Change (1.0 vs. 0.0)” value (GNAS 200780_x_at) was −1.158. For the same compound, the “Fold-Change (1.0 vs. 0.0)” value (GNAS 200981_x_at) was −1.1585, the “Fold-Change (1.0 vs. 0.0)” value (GNAS 212273_x_at) was −1.156 and the “Fold-Change (1.0 vs. 0.0)” value (GNAS 214548_x_at) was −1.159. For the same compound, the “Fold-Change (1.0 vs. 0.0)” value (GNB5 207124_s_at) was −1.1663, the “Fold-Change (1.0 vs. 0.0)” value (GNB5 211871_x_at) was −1.159 and the “Fold-Change (1.0 vs. 0.0)” value (GP1BA 207389_at) was −1.548. For the same compound, the “Fold-Change (1.0 vs. 0.0)” value (GPRASP1 204793_at) was −1.16, the “Fold-Change (1.0 vs. 0.0)” value (GRAP2 208406_s_at) was −1.394 and the “Fold-Change (1.0 vs. 0.0)” value (GSPT1 217595_at) was −1.116. For the same compound, the “Fold-Change (1.0 vs. 0.0)” value (GUCY1B3 203817_at) was −1.73, the “Fold-Change (1.0 vs. 0.0)” value (H2BFS /// HIST1H2BK 208579_x_at) was −1.481 and the “Fold-Change (1.0 vs. 0.0)” value (HIST1H2AC 215071_s_at) was −1.628. For the same compound, the “Fold-Change (1.0 vs. 0.0)” value (HIST1H2AJ 208583_x_at) was −1.278, the “Fold-Change (1.0 vs. 0.0)” value (HIST1H2BK 209806_at) was −1.418 and the “Fold-Change (1.0 vs. 0.0)” value (HLA-E 217456_x_at) was −1.062. The “Fold-Change (1.0 vs. 0.0)” value (IGF2BP3 203819_s_at) was −1.72, the “Fold-Change (1.0 vs. 0.0)” value (ITGB1 211945_s_at) was −1.17 and the “Fold-Change (1.0 vs. 0.0)” value (ITGB3 204628_s_at) was −1.579. The “Fold-Change (1.0 vs. 0.0)” value (ITGB3 215240_at) was −1.589, the “Fold-Change (1.0 vs. 0.0)” value (ITGB5 201125_s_at) was −1.713 and the “Fold-Change (1.0 vs. 0.0)” value (LIMS1 207198_s_at) was −1.445. For the same compound, the “Fold-Change (1.0 vs. 0.0)” value (LIMS1 212687_at) was −1.3332, the “Fold-Change (1.0 vs. 0.0)” value (LOC150776 /// SMPD4 207856_s_at) was −1.0672 and the “Fold-Change (1.0 vs. 0.0)” value (LOC157627 214839_at) was 1.326. The “Fold-Change (1.0 vs. 0.0)” value (LUC7L2 220099_s_at) was −1.155.
